Reference: patent US5405861A, “Triazole compounds and antifungal compositions thereof” (Takeda Chemical Industries, Co., Ltd., priority 1989, dated 1995)
Structures can show the parent of a compound that is named as a salt. Where two headings read alike, the source gives them in different places.

Tests used:
[1] = tested on: Candida albicans (IFO 0538); test: Antifungal activity against Candida albicans, paper disc growth inhibition zone (Tables 5 and 6); type: cell-based; settings: 28° C., 2 days incubation; for zone of inhibition at 1000 µg/mL: 48 h, read-out: Inhibition zone diameter
Protocol: The antifungal activities of the compounds (I) were evaluated by the following method: a sheet of filter paper disc (manufactured by Toyo Seisakusho, 8 mm in diameter) soaked in a 1000 μg/ml solution of a compound (I) in methanol was placed on an agar plate, which was incubated at 28° C. for 2 days, and the diameter of the growth inhibition zone around the filter paper disc was measured. The following culture media were used:
A: yeast nitrogen base agar medium
B: yeast nitrogen base agar medium (pH 7.0)

Candida albicans = test: Infection-preventing effect in experimental infection in mice, Method 1 (Table 7-1); type: in vivo, Crj:CDF1 mice; settings: Candida albicans, 168 h, given 0 and 2 hours after infection, survival 7 days after infection, total dose, read-out: ED50
Protocol: Method 1 (Table 7-1): To 5-week-old Crj:CDF1 mice the minimum lethal dose of Candida albicans was inoculated intravenously. The test drug was given twice 0 and 2 hours after infection. The effectiveness of the drug was expressed in ED50 values calculated by the Reed and Muench method from the survival rate 7 days after infection. The ED50 values were calculated based on the total dose given on the two occasions.

[2] = pH 7, B medium (yeast nitrogen base agar, pH 7.0)
[3] = A medium (yeast nitrogen base agar)

Compound	zone of inhibition at 1000 µg/mL [1, 2] [mm]	ED50 (Candida albicans; sc, s.c.) [mg/kg]	also measured
C[C@@H](SCc1cncn1C)[C@](O)(Cn1cncn1)c1ccc(F)cc1F (racemic) [Compound 29, (2RS,3RS)-2-(2,4-difluorophenyl)-3-(1-methylimidazol-5-yl)methylthio-1-(1H-1,2,4-triazol-1-yl)-2-butanol]	38	0.71	
C[C@@H](S)[C@](O)(Cn1cncn1)c1ccc(F)cc1F (racemic) [Compound 39, (2RS,3RS)-2-(2,4-difluorophenyl)-3-mercapto-1-(1H-1,2,4-triazol-1-yl)-2-butanol]	18	0.19	ED50 (Candida albicans; po, p.o.): 0.35 mg/kg
C[C@@H](SCCc1nccn1C)[C@](O)(Cn1cncn1)c1ccc(F)cc1F (racemic) [Compound 50, (2RS,3RS)-2-(2,4-difluorophenyl)-3-[2-(1-methylimidazol-2-yl)ethyl]thio-1-(1H-1,2,4-triazol-1-yl)-2-butanol]	22	3.2	
Cc1oc(=O)oc1CS[C@H](C)[C@](O)(Cn1cncn1)c1ccc(F)cc1F (racemic) [Compound 56, (2RS,3RS)-2-(2,4-difluorophenyl)-3-(5-methyl-2-oxo-1,3-dioxol-4-yl)methylthio-1-(1H-1,2,4-triazol-1-yl)-2-butanol]	30	2	
C[C@H](S)[C@](O)(Cn1cncn1)c1ccc(F)cc1F (racemic) [Compound 60, (2RS,3SR)-2-(2,4-difluorophenyl)-3-mercapto-1-(1H-1,2,4-triazol-1-yl)-2-butanol]	30	> 4	
C[C@@H](SCCn1cncn1)[C@](O)(Cn1cncn1)c1ccc(F)cc1F (relative stereo) [13(hydrochloride)]	25	10	
C[C@@H](SCc1nccn1C)[C@](O)(Cn1cncn1)c1ccc(F)cc1F (relative stereo) [16(hydrochloride)]			ED50 (Candida albicans; po, p.o.): 0.71 mg/kg
C[C@@H](SCc1cn2ccccc2n1)[C@](O)(Cn1cncn1)c1ccc(F)cc1F (relative stereo) [27(hydrochloride)]		3.2	
C[C@@H](SCc1nccn1CC(F)(F)C(F)F)[C@](O)(Cn1cncn1)c1ccc(F)cc1F (relative stereo) [30(hydrochloride)]		0.88	
C[C@@H](SCc1nccs1)[C@](O)(Cn1cncn1)c1ccc(F)cc1F (relative stereo) [38(hydrochloride)]		3.2	
C[C@@H](SCCn1cncn1)[C@](O)(Cn1cncn1)c1ccc(F)cc1F (relative stereo) [Compound 13]			zone of inhibition at 1000 µg/mL [1, 3]: 34 mm
C[C@H]([C@](O)(Cn1cncn1)c1ccc(F)cc1F)S(=O)(=O)CCn1cncn1 (relative stereo) [Compound 14]			zone of inhibition at 1000 µg/mL [1, 3]: 22 mm
C[C@@H](SCc1nccn1C)[C@](O)(Cn1cncn1)c1ccc(F)cc1F (relative stereo) [Compound 16]	25	0.63	
C[C@@H](SCCSCCn1cncn1)[C@](O)(Cn1cncn1)c1ccc(F)cc1F (relative stereo) [Compound 22]	25		
C[C@@H](SCCSCCn1ccnc1)[C@](O)(Cn1cncn1)c1ccc(F)cc1F (relative stereo) [Compound 23]	25		
C[C@@H](SCc1nc2c(s1)CCC2)[C@](O)(Cn1cncn1)c1ccc(F)cc1F (relative stereo) [Compound 25]	40	3.2	
Cc1nnc(S[C@H](C)[C@](O)(Cn2cncn2)c2ccc(F)cc2F)s1 (relative stereo) [Compound 26]	45	3.2	
C[C@@H](SCc1cn2ccccc2n1)[C@](O)(Cn1cncn1)c1ccc(F)cc1F (relative stereo) [Compound 27]	45		
C[C@@H](SCc1cn(C)cn1)[C@](O)(Cn1cncn1)c1ccc(F)cc1F (relative stereo) [Compound 28]	40	0.65	
C[C@@H](SCc1nccn1CC(F)(F)C(F)F)[C@](O)(Cn1cncn1)c1ccc(F)cc1F (relative stereo) [Compound 30]	40		
C[C@@H](SCc1ncnn1C)[C@](O)(Cn1cncn1)c1ccc(F)cc1F (relative stereo) [Compound 31]	40	0.71	
C[C@@H](SCc1ncn(C)n1)[C@](O)(Cn1cncn1)c1ccc(F)cc1F (relative stereo) [Compound 32]	40	3.2	
C[C@@H](SCc1nncn1C)[C@](O)(Cn1cncn1)c1ccc(F)cc1F (relative stereo) [Compound 33]	20	0.45	
CSc1nnc(CS[C@H](C)[C@](O)(Cn2cncn2)c2ccc(F)cc2F)n1C (relative stereo) [Compound 34]	30	3.2	
C[C@@H](SCc1ncc2n1CCC2)[C@](O)(Cn1cncn1)c1ccc(F)cc1F (relative stereo) [Compound 35]	33	0.71	
Cc1nc(CS[C@H](C)[C@](O)(Cn2cncn2)c2ccc(F)cc2F)sc1C (relative stereo) [Compound 36]	45	3.2	

Compound	zone of inhibition at 1000 µg/mL [1, 2] [mm]	ED50 (Candida albicans; sc, s.c.) [mg/kg]	also measured
Cc1csc(CS[C@H](C)[C@](O)(Cn2cncn2)c2ccc(F)cc2F)n1 (relative stereo) [Compound 37]	45	1.4	
C[C@@H](SCc1nccs1)[C@](O)(Cn1cncn1)c1ccc(F)cc1F (relative stereo) [Compound 38]	47		
CC(=O)S[C@H](C)[C@](O)(Cn1cncn1)c1ccc(F)cc1F (relative stereo) [Compound 40]	50	0.35	
CCn1ccnc1CS[C@H](C)[C@](O)(Cn1cncn1)c1ccc(F)cc1F (relative stereo) [Compound 46]	27	0.7	
CC(C)n1ccnc1CS[C@H](C)[C@](O)(Cn1cncn1)c1ccc(F)cc1F (relative stereo) [Compound 47]	25	0.7	
C[C@@H](SCc1nccn1CCF)[C@](O)(Cn1cncn1)c1ccc(F)cc1F (relative stereo) [Compound 48]	23	0.77	
C[C@@H](SCc1nccn1CC(F)(F)F)[C@](O)(Cn1cncn1)c1ccc(F)cc1F (relative stereo) [Compound 49]	25	1	
C[C@@H](SCc1nccn1CC1CC1)[C@](O)(Cn1cncn1)c1ccc(F)cc1F (relative stereo) [Compound 51]	28	2	
Cc1nc(CS[C@H](C)[C@](O)(Cn2cncn2)c2ccc(F)cc2F)cs1 (relative stereo) [Compound 52]	35	2	
Cc1ncc(CS[C@H](C)[C@](O)(Cn2cncn2)c2ccc(F)cc2F)s1 (relative stereo) [Compound 53]	35	2	
C[C@@H](SCc1nccn1CC(F)F)[C@](O)(Cn1cncn1)c1ccc(F)cc1F (relative stereo) [Compound 54]	25	0.5	
C[C@@H](SCc1nccn1C1CC1)[C@](O)(Cn1cncn1)c1ccc(F)cc1F (relative stereo) [Compound 55]	30	0.5	
CC(=O)S[C@@H](C)[C@](O)(Cn1cncn1)c1ccc(F)cc1F (relative stereo) [Compound 61]	30		
OC(CSCCSCCn1ccnc1)(Cn1cncn1)c1ccc(F)cc1F (centres unmarked) [Compound 7]			zone of inhibition at 1000 µg/mL [1, 3]: 18 mm
OC(CSCCc1ccncc1)(Cn1cncn1)c1ccc(F)cc1F (centres unmarked) [Compound 8]			zone of inhibition at 1000 µg/mL [1, 3]: 25 mm
CC(SCC(O)(Cn1cncn1)c1ccc(F)cc1F)c1ccncc1 (centres unmarked) [Compound 9]			zone of inhibition at 1000 µg/mL [1, 3]: 21 mm
CC(SCC(O)(Cn1cncn1)c1ccc(F)cc1F)c1ccncc1 (centres unmarked) [Compound 11]			Inhibition zone diameter [1, 3]: 24 mm
Cn1ccnc1CSCCSCC(O)(Cn1cncn1)c1ccc(F)cc1F (centres unmarked) [Compound 17]	25		
Cn1ccnc1SCCSCC(O)(Cn1cncn1)c1ccc(F)cc1F (centres unmarked) [Compound 18]	25		
OC(CSCCSCc1ccncc1)(Cn1cncn1)c1ccc(F)cc1F (centres unmarked) [Compound 19]	30		
Cn1nnnc1SCCSCC(O)(Cn1cncn1)c1ccc(F)cc1F (centres unmarked) [Compound 20]	25		
OC(CSCCSCCn1cncn1)(Cn1cncn1)c1ccc(F)cc1F (centres unmarked) [Compound 21]	20		
OC(CSCCSc1ccncc1)(Cn1cncn1)c1ccc(F)cc1F (centres unmarked) [Compound 24]	25		
C[C@@H](SCc1nncn1C)[C@](O)(Cn1cncn1)c1ccc(F)cc1F [Compound 95]	28		
CCn1ccnc1CS[C@H](C)[C@](O)(Cn1cncn1)c1ccc(F)cc1F [Compound 101]	38		
CC(C)n1ccnc1CS[C@H](C)[C@](O)(Cn1cncn1)c1ccc(F)cc1F [Compound 102]	35		
